The values below come from patent US11912693B2, “Compounds for modulating S1P1 activity and methods of using the same” (TREVENA, INC., priority 2017, dated 2024).

Each structure is given as a SMILES string. Bounds are passed on as bounds.

In experiment [1] the target is T1, human sphingosine-1-phosphate receptor 1 (S1P1) (Homo sapiens (Human), UniProt P21453). Nature of the experiment: Inhibition of cAMP production (HTRF cAMP HiRange), S1P1 CHO-K1 cells. It is filed as cell-based. To be noted: for Emax: CHO-K1, efficacy (SPAN) normalized to fingolimod, read-out: hS1P1 cAMP SPAN. An outline of the steps:
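CHO-K1 cells stably co-expressing human S1P1 (C-terminal Prolink tag) and EA-β-arrestin2 were grown in AssayComplete Media 6 at 37° C. and 5% CO2, plated, and incubated overnight. Agonist-driven inhibition of intracellular cAMP was read by TR-FRET with the HTRF cAMP HiRange kit on a PheraStar reader. Potency is pEC50, and efficacy (SPAN) is normalized to fingolimod.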
A general note: cAMP levels reflect the balance of adenylyl cyclase and phosphodiesterase activity.
Target sequence in this assay (P21453 whole entry, looked up): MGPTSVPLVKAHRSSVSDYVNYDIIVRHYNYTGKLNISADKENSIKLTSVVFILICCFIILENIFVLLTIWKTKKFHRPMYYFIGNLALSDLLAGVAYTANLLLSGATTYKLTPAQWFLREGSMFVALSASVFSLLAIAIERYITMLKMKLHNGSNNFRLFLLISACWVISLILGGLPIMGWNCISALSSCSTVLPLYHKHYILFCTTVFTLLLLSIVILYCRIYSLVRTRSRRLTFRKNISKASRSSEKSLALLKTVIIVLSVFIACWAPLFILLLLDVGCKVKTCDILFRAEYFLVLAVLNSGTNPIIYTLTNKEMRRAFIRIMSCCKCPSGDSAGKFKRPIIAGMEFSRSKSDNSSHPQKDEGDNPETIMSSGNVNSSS

Experiment [2] has as its target T1, human sphingosine-1-phosphate receptor 1 (S1P1). Nature of the experiment: β-Arrestin2 recruitment assay (PathHunter), S1P1 CHO-K1 cells. It is filed as cell-based. Particulars: for Emax: CHO-K1, efficacy (SPAN) normalized to fingolimod, read-out: hS1P1 B-arrestin2 SPAN. An outline of the steps: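 Enzyme-fragment complementation read-out: agonist-driven β-arrestin2 binding to ProLink-tagged human S1P1 in stable CHO-K1 cells restores β-galactosidase, measured 1 h at room temperature after a 60 min 37° C. compound incubation. Potency as pEC50, efficacy relative to fingolimod (SPAN).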
Target sequence in this assay (P21453 whole entry, looked up): as above
Target sequence in this assay (P32121 whole entry partner, looked up): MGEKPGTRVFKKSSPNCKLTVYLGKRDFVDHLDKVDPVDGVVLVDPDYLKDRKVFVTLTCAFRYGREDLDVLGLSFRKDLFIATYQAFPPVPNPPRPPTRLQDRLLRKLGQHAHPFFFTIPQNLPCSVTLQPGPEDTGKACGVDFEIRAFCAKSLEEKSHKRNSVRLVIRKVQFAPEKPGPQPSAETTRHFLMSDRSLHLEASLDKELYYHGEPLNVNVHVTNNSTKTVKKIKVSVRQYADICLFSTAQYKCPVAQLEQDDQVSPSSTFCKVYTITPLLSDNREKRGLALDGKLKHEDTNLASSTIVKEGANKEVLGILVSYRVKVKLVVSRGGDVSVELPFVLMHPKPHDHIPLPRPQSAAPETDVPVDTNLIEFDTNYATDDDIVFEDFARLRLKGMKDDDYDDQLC
(In general: Recruitment of arrestin is a read-out of receptor activation apart from second messengers.)

Setting [3] is: inhibition of cAMP production, S1P1 CHO-K1 cells.
The mark [4] stands for this setting: β-arrestin2 recruitment, S1P1 CHO-K1 cells.

For the compound `Cc1ccccc1-c1noc(-c2ccc3c(c2)nnn3CC(F)F)n1` [Compound 182, 1-(2,2-difluoroethyl)-5-[3-(2-methylphenyl)-1,2,4-oxadiazol-5-yl]-1H-1,2,3-benzotriazole], the values for the Emax in experiment [1] and in experiment [2] were above 75% and below 75%, respectively. Also, the “hS1P1 cAMP pEC50” value in experiment [1] (setting [3]) is above 6.5. Further, the “hS1P1 B-arrestin2 pEC50” value in experiment [2] (setting [4]) is above 5.
Regarding `CC(C)n1nnc2cc(-c3nc(-c4ccccc4Br)co3)ccc21` [Compound 183, 5-[4-(2-bromophenyl)-1,3-oxazol-2-yl]-1-(propan-2-yl)-1H-1,2,3-benzotriazole], the Emax in experiment [1] and in experiment [2] was above 75% throughout. Further, the “hS1P1 cAMP pEC50” value in experiment [1] (setting [3]) is above 6.5. Further, in experiment [2] (setting [4]), the “hS1P1 B-arrestin2 pEC50” value was above 5.
Turning to `COc1ccccc1-c1cnc(-c2ccc3c(c2)nnn3C(C)C)s1` [Compound 184, 2-(1-isopropyl-1H-benzo[d][1,2,3]triazol-5-yl)-5-(2-methoxyphenyl)thiazole], the “hS1P1 cAMP pEC50” value in experiment [1] (setting [3]) is below 6.5. In addition, the “hS1P1 B-arrestin2 pEC50” value in experiment [2] (setting [4]) is reported as below 5.
Consider `COCC1(COC)CC(=O)c2cc(-c3nc(-c4cccnc4)no3)ccc2O1` [Compound 186, 2,2-bis(methoxymethyl)-6-[3-(pyridin-3-yl)-1,2,4-oxadiazol-5-yl]-3,4-dihydro-2H-1-benzopyran-4-one], for which the Emax in experiment [1] and in experiment [2] was below 75% each time. Besides, the “hS1P1 cAMP pEC50” value in experiment [1] (setting [3]) is on record as below 6.5. Also, in experiment [2] (setting [4]), the “hS1P1 B-arrestin2 pEC50” value is below 5.
Consider `CCC1(CC)CC(=O)c2cc(-c3nc(-c4ccccc4O)no3)ccc2O1` [Compound 187, 2,2-diethyl-6-[3-(2-hydroxyphenyl)-1,2,4-oxadiazol-5-yl]chroman-4-one], for which the Emax is below 75% in experiment [1] and above 75% in experiment [2]. Besides, the “hS1P1 cAMP pEC50” value in experiment [1] (setting [3]) is listed as below 6.5. In addition, the “hS1P1 B-arrestin2 pEC50” value in experiment [2] (setting [4]) is on record as below 5.
Turning to `CCCCC1(CCCC)CC(=O)c2cc(-c3nc(-c4cccnc4)no3)ccc2O1` [Compound 188, 2,2-dibutyl-6-[3-(pyridin-3-yl)-1,2,4-oxadiazol-5-yl]-3,4-dihydro-2H-1-benzopyran-4-one], the Emax in experiment [1] and in experiment [2] was below 75% in each case. Further, the “hS1P1 cAMP pEC50” value in experiment [1] (setting [3]) was below 6.5. Moreover, the “hS1P1 B-arrestin2 pEC50” value in experiment [2] (setting [4]) is below 5.
With `C=CCNc1ccc(-c2nc(-c3ccc4[nH]c(=O)oc4c3)no2)cc1C#N` [Compound 189, 2-(allylamino)-5-(3-(2-oxo-2,3-dihydrobenzo[d]oxazol-6-yl)-1,2,4-oxadiazol-5-yl)benzonitrile], the “hS1P1 cAMP pEC50” value in experiment [1] (setting [3]) was above 6.5. Also, the “hS1P1 B-arrestin2 pEC50” value in experiment [2] (setting [4]) is recorded as above 5.
Turning to `Brc1ccccc1-c1noc(-c2ccc3[nH]nnc3c2)n1` [Compound 190, 5-[3-(2-bromophenyl)-1,2,4-oxadiazol-5-yl]-1H-1,2,3-benzotriazole], the Emax in experiment [1] and in experiment [2] was below 75% each time. In addition, the “hS1P1 cAMP pEC50” value in experiment [1] (setting [3]) is below 6.5. Besides, the “hS1P1 B-arrestin2 pEC50” value in experiment [2] (setting [4]) was below 5.
`Cc1ccc(-c2noc(-c3ccc4c(c3)nnn4C3CCCC3)n2)s1` [Compound 192, 1-cyclopentyl-5-[3-(5-methylthiophen-2-yl)-1,2,4-oxadiazol-5-yl]-1H-1,2,3-benzotriazole]: the “hS1P1 cAMP pEC50” value in experiment [1] (setting [3]) was below 6.5. Also, the “hS1P1 B-arrestin2 pEC50” value in experiment [2] (setting [4]) is recorded as below 5.
For `CCCn1nnc2cc(-c3nc(-c4ccc(C(F)(F)F)c(F)c4)no3)ccc21` [Compound 193, 5-{3-[3-fluoro-4-(trifluoromethyl)phenyl]-1,2,4-oxadiazol-5-yl}-1-propyl-1H-1,2,3-benzotriazole] the same measures were below 6.5 and below 5.
As for `Cc1ncccc1-c1nc(-c2ccc3c(c2)nnn3C(C)C)no1` [Compound 194, 3-(1-isopropyl-1H-benzo[d][1,2,3]triazol-5-yl)-5-(2-methylpyridin-3-yl)-1,2,4-oxadiazole], the Emax in experiment [1] and in experiment [2] was below 75% each time. Further, the “hS1P1 cAMP pEC50” value in experiment [1] (setting [3]) is below 6.5. Besides, in experiment [2] (setting [4]), the “hS1P1 B-arrestin2 pEC50” value is below 5.
Regarding `O=C(O)Cn1nnc2cc(-c3noc(-c4ccccc4Br)n3)ccc21` [Compound 195, 2-(5-(5-(2-bromophenyl)-1,2,4-oxadiazol-3-yl)-1H-benzo[d][1,2,3]triazol-1-yl)acetic acid], the Emax in experiment [1] and in experiment [2] was below 75% in each case. In addition, the EC50 was above 0.316 µM in experiment [1] (inhibition of cAMP production, S1P1 CHO-K1 cells, read-out: hS1P1 cAMP pEC50 (converted)) and above 10 µM in experiment [2] (β-arrestin2 recruitment, S1P1 CHO-K1 cells, read-out: hS1P1 B-arrestin2 pEC50 (converted)).
`COc1ccc(-c2nc(-c3ccc4c(c3)nnn4C3CCCC3)no2)cc1` [Compound 196, 3-(1-cyclopentyl-1H-benzo[d][1,2,3]triazol-5-yl)-5-(4-methoxyphenyl)-1,2,4-oxadiazole]: the “hS1P1 cAMP pEC50” value in experiment [1] (setting [3]) was below 6.5. The “hS1P1 B-arrestin2 pEC50” value in experiment [2] (setting [4]) is listed as below 5.
As for `COc1ccc(-c2noc(-c3ccc4c(c3)nnn4C3CCCC3)n2)cc1C(F)(F)F` [Compound 197, 1-cyclopentyl-5-{3-[4-methoxy-3-(trifluoromethyl)phenyl]-1,2,4-oxadiazol-5-yl}-1H-1,2,3-benzotriazole], the Emax in experiment [1] and in experiment [2] was below 75% throughout. Further, the “hS1P1 cAMP pEC50” value in experiment [1] (setting [3]) was below 6.5. In addition, in experiment [2] (setting [4]), the “hS1P1 B-arrestin2 pEC50” value was below 5.
With `Clc1ncccc1-c1noc(-c2ccc3c(c2)nnn3C2CCCC2)n1` [Compound 198, 5-[3-(2-chloropyridin-3-yl)-1,2,4-oxadiazol-5-yl]-1-cyclopentyl-1H-1,2,3-benzotriazole], the results for the Emax in experiment [1] and in experiment [2] were above 75% and below 75%, respectively. Also, the “hS1P1 cAMP pEC50” value in experiment [1] (setting [3]) was above 6.5. Further, the “hS1P1 B-arrestin2 pEC50” value in experiment [2] (setting [4]) is recorded as above 5.
For the compound `Clc1ncccc1-c1noc(-c2ccc3c(c2)nnn3CC2CC2)n1` [Compound 199, 5-[3-(2-chloropyridin-3-yl)-1,2,4-oxadiazol-5-yl]-1-(cyclopropylmethyl)-1H-1,2,3-benzotriazole], the Emax in experiment [1] and in experiment [2] was below 75% in each case. In addition, in experiment [1] (setting [3]), the “hS1P1 cAMP pEC50” value is on record as below 6.5. Also, the “hS1P1 B-arrestin2 pEC50” value in experiment [2] (setting [4]) is reported as below 5.
`CC(C)n1nnc2cc(-c3noc(C45CC6CC(CC(C6)C4)C5)n3)ccc21` [Compound 200, 5-[5-(adamantan-1-yl)-1,2,4-oxadiazol-3-yl]-1-(propan-2-yl)-1H-1,2,3-benzotriazole]: the “hS1P1 cAMP pEC50” value in experiment [1] (setting [3]) is recorded as below 6.5. Moreover, in experiment [2] (setting [4]), the “hS1P1 B-arrestin2 pEC50” value is below 5.
Take `Cc1cc(-c2nc(-c3ccc4c(c3)nnn4C(C)C)no2)cnc1C` [Compound 201, 5-(5,6-dimethylpyridin-3-yl)-3-(1-isopropyl-1H-benzo[d][1,2,3]triazol-5-yl)-1,2,4-oxadiazole]: the “hS1P1 cAMP pEC50” value in experiment [1] (setting [3]) is on record as below 6.5. In experiment [2] (setting [4]), the “hS1P1 B-arrestin2 pEC50” value was below 5.
Regarding `Cc1ccccc1Cc1noc(-c2ccc3c(c2)nnn3C(C)C)n1` [Compound 202, 5-{3-[(2-methylphenyl)methyl]-1,2,4-oxadiazol-5-yl}-1-(propan-2-yl)-1H-1,2,3-benzotriazole], the Emax in experiment [1] and in experiment [2] was below 75% in each case. Also, in experiment [1] (setting [3]), the “hS1P1 cAMP pEC50” value is on record as below 6.5. The “hS1P1 B-arrestin2 pEC50” value in experiment [2] (setting [4]) is reported as below 5.
Take `COc1cccnc1-c1noc(-c2ccc3c(c2)nnn3C2CCCC2)n1` [Compound 203, 1-cyclopentyl-5-[3-(3-methoxypyridin-2-yl)-1,2,4-oxadiazol-5-yl]-1H-1,2,3-benzotriazole]: the values for the Emax in experiment [1] and in experiment [2] were below 75% and above 75%, respectively. Also, in experiment [1] (setting [3]), the “hS1P1 cAMP pEC50” value is listed as below 6.5. The “hS1P1 B-arrestin2 pEC50” value in experiment [2] (setting [4]) was below 5.
